According to patent US20250215029A1 (Recludix Pharma, Inc., priority 2022, published 2025):
Read-outs that look alike come from different tables or passages of the source.

Experiments:
[1] = target: T1, Recombinant STAT6 protein (STAT6 (W123-T658)) (Homo sapiens, UniProt P42226); experiment: STAT6 Fluorescence Polarization (FP) Assay; assay type: binding; conditions: probe 5-FAM-Ap[…]-NH2 2 nM, 45-minute incubation
T1 construct: Recombinant STAT6 protein (STAT6 (W123-T658))
T1 sequence (P42226 123-658): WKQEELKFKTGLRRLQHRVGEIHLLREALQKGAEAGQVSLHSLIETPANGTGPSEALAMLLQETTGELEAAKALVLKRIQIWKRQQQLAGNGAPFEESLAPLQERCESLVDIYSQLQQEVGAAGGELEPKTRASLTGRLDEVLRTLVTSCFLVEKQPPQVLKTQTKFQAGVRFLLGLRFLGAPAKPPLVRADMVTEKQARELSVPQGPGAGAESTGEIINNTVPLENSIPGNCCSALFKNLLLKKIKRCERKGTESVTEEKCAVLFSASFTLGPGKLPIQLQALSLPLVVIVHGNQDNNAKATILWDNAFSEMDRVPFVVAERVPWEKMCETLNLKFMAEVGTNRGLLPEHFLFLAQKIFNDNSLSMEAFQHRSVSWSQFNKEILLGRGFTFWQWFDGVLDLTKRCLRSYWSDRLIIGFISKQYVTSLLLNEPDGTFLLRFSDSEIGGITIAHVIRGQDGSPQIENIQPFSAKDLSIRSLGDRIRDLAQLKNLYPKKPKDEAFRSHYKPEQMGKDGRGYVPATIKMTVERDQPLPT
In short: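 Fluorescence polarization (mP) read-out: 250 nM STAT6 (W123-T658) plus 2 nM 5-FAM phosphotyrosine peptide, 45 min, room temperature, 1% DMSO. IC50 by nonlinear fit of mP against log compound concentration.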

[2] = target: T2, Recombinant STAT3 protein (STAT3 (G127-I722)) (Homo sapiens, UniProt P40763); experiment: STAT3 Fluorescence Polarization (FP) Assay; assay type: binding; conditions: probe 5-FAM-GpYLPQTV-NH2 2 nM, 45-minute incubation
T2 construct: Recombinant STAT3 protein (STAT3 (G127-I722))
In short: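 Displacement of a 2 nM 5-FAM-labelled pY peptide (GpYLPQTV) from 25 nM recombinant STAT3 (G127-I722) was monitored by fluorescence polarization. Incubation lasted 45 min at room temperature in pH 7.4 HEPES buffer containing 1% DMSO.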

[3] = STAT6 (W123-T658) 250 nM, read-out: STAT6 (FP assay IC50 class)
[4] = STAT3 (G127-I722) 25 nM, read-out: STAT3 (FP assay IC50 class)
[5] = STAT6 250 nM, read-out: STAT6 (FP assay IC50)
[6] = STAT3 25 nM, read-out: STAT3 (FP assay IC50)

T2 sequence (P40763 127-722): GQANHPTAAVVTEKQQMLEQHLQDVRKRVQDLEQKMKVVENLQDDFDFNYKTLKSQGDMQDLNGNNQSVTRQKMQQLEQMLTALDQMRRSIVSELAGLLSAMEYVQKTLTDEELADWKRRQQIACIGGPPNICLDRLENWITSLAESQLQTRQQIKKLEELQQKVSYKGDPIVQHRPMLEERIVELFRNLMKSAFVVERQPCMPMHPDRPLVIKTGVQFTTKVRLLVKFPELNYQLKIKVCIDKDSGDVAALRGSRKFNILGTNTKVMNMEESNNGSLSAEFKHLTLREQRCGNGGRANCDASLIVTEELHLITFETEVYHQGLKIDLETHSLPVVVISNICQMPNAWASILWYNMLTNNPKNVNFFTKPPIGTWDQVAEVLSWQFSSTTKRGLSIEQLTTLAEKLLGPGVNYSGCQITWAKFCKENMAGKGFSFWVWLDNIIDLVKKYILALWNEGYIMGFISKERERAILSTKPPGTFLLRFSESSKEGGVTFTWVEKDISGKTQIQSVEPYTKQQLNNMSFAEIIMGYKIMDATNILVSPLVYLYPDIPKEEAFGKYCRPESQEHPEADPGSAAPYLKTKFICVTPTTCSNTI

| Compound | IC50 [1, 3] [µM] | IC50 [2, 4] [nM] | IC50 [1, 5] [µM] | IC50 [2, 6] [nM] |
| --- | --- | --- | --- | --- |
| O=C(N[C@H]1CCCC[C@H]2CC[C@@H](C(=O)N3C(=O)N(c4ccn(C(F)F)c(=O)c4)C(=O)C34CC4)N2C1=O)c1cc2cc(C(F)P(=O)(O)O)ccc2s1 (stereo partly drawn) [Compound 572, ((2-(((3S,6S,10aS)-3-(6-(1-(difluoromethyl)-2-oxo-1,2-dihydropyridin-4-yl)-5,7-dioxo-4,6-diazaspiro[2.4]heptane-4-carbonyl)-5-oxodecahydropyrrolo[1,2-a]azocin-6-yl)carbamoyl)benzo[b]thiophen-5-yl)fluoromethyl)phosphonic acid] | 0.3 to 3 | 1000 to 10000 | – | – |
| O=C(N[C@H]1CCC[C@H]2CC[C@@H](C(=O)N3CC(c4cncc(Cl)c4F)C3)N2C1=O)c1cc2cc(C(F)P(=O)(O)O)ccc2s1 (stereo partly drawn) [Compound 717, ((2-(((3S,6S,9aS)-3-(3-(5-chloro-4-fluoropyridin-3-yl)azetidine-1-carbonyl)-5-oxooctahydro-1H-pyrrolo[1,2-a]azepin-6-yl)carbamoyl)benzo [b]thiophen-5-yl)fluoromethyl) phosphonic acid] | 3 to 30 | < 100 | – | – |
| O=C(N[C@H]1CCCC[C@H]2CC[C@@H](C(=O)N3CCC(c4ccccn4)CC3)N2C1=O)c1cc2cc(C(F)P(=O)(O)O)ccc2s1 (stereo partly drawn) [Compound 579, (fluoro(2-(((3S,6S,10aS)-5-oxo-3-(4-(pyridin-2-yl)piperidine-1-carbonyl)decahydropyrrolo[1,2-a]azocin-6-yl)carbamoyl)benzo[b]thiophen-5-yl)methyl)phosphonic acid] | 3 to 30 | 100 to 1000 | – | – |
| O=C(N[C@H]1CCC[C@H]2CC[C@@H](C(=O)N3CC(c4ccc5ncccc5c4F)C3)N2C1=O)c1cc2cc(C(F)P(=O)(O)O)ccc2s1 (stereo partly drawn) [Compound 544, (fluoro(2-(((3S,6S,9aS)-3-(3-(5-fluoroquinolin-6-yl)azetidine-1-carbonyl)-5-oxooctahydro-1H-pyrrolo[1,2-a]azepin-6-yl)carbamoyl)benzo[b]thiophen-5-yl)methyl)phosphonic acid] | 3 to 30 | 1000 to 10000 | – | – |
| O=C(N[C@H]1CC[C@H](N2CCC2)C[C@H]2CC[C@@H](C(=O)N3CC(C(=O)N4CCOCC4)C3)N2C1=O)c1cc2cc(C(F)(F)P(=O)(O)O)ccc2s1 [Compound 20, ((2-(((3S,6S,9S,10aR)-9-(azetidin-1-yl)-3-(3-(morpholine-4-carbonyl)azetidine-1-carbonyl)-5-oxodecahydropyrrolo [1,2-a]azocin-6-yl)carbamoyl)benzo[b]thiophen-5-yl)difluoromethyl) phosphonic acid] | – | – | 3 to 30 | 100 to 1000 |
| O=C(N[C@H]1CC[C@H](O)C[C@H]2CC[C@@H](C(=O)N3CC(n4ccnc4)C3)N2C1=O)c1cc2cc(C(F)(F)P(=O)(O)O)ccc2s1 [Compound 15, ((2-(((3S,6S,9S,10aR)-3-(3-(1H-imidazol-1-yl)azetidine-1-carbonyl)-9-hydroxy-5-oxodecahydropyrrolo [1,2-a]azocin-6-yl)carbamoyl)benzo[b]thiophen-5-yl)difluoromethyl) phosphonic acid] | – | – | 0.3 to 3 | < 100 |
| CN(C(=O)[C@@H]1CC[C@@H]2CCC[C@H](NC(=O)c3cc4cc(C(F)(F)P(=O)(O)O)ccc4s3)C(=O)N21)c1ccccc1 [Compound 111, (Difluoro(2-(((3S,6S,9aS)-3-(methyl(phenyl)carbamoyl)-5-oxooctahydro-1H-pyrrolo[1,2-a]azepin-6-yl)carbamoyl)benzo[b]thiophen-5-yl)methyl)phosphonic acid] | – | – | 0.3 to 3 | 1000 to 10000 |
| COc1cc(C(F)F)ncc1C1CN(C(=O)[C@@H]2CC[C@@H]3CCC[C@H](NC(=O)c4cc5cc(CP(=O)(O)O)ccc5s4)C(=O)N32)C1 [Compound 593, ((2-(((3S,6S,9aS)-3-(3-(6-(difluoromethyl)-4-methoxypyridin-3-yl)azetidine-1-carbonyl)-5-oxooctahydro-1H-pyrrolo[1,2-a]azepin-6-yl)carbamoyl)benzo [b]thiophen-5-yl)methyl) phosphonic acid] | 3 to 30 | 1000 to 10000 | – | – |
| CC(C)Oc1ccncc1C1CN(C(=O)[C@@H]2CC[C@@H]3C[C@@H](C)C[C@H](NC(=O)c4cc5cc([C@H](F)P(=O)(O)O)ccc5s4)C(=O)N32)C1 (single isomer, unassigned) [Compound 748] | 3 to 30 | < 100 | – | – |

Now from value to compound:

| IC50 [1, 3] [µM] | IC50 [2, 4] [nM] | IC50 [1, 5] [µM] | IC50 [2, 6] [nM] | Compound |
| --- | --- | --- | --- | --- |
| 3 to 30 | 100 to 1000 | – | – | Cc1nc2cc(CNC(=O)[C@@H]3CC[C@@H]4CCC[C@H](NC(=O)c5cc6cc(C(F)(F)P(=O)(O)O)ccc6s5)C(=O)N43)ccc2[nH]1 [Compound 1116, (difluoro(2-(((3S,6S,9aS)-3-(((2-methyl-1H-benzo[d]imidazol-5-yl)methyl)carbamoyl)-5-oxooctahydro-1H-pyrrolo[1,2-a]azepin-6-yl)carbamoyl)benzo[b]thiophen-5-yl)methyl)phosphonic acid] |
| 3 to 30 | < 100 | – | – | N#Cc1cc(C2CN(C(=O)[C@@H]3CC[C@@H]4CCC[C@H](NC(=O)c5cc6cc(C(F)P(=O)(O)O)ccc6s5)C(=O)N43)C2)ccn1 (stereo partly drawn) [Compound 918, ((2-(((3S,6S,9aS)-3-(3-(2-cyanopyridin-4-yl)azetidine-1-carbonyl)-5-oxooctahydro-1H-pyrrolo[1,2-a]azepin-6-yl)carbamoyl)benzo [b]thiophen-5-yl)fluoromethyl) phosphonic acid] |
| 3 to 30 | < 100 | – | – | CC(C)c1ccncc1C1CN(C(=O)[C@@H]2CC[C@@H]3CCC[C@H](NC(=O)c4cc5cc(C(F)P(=O)(O)O)ccc5s4)C(=O)N32)C1 (stereo partly drawn) [Compound 939, (fluoro(2-(((3S,6S,9aS)-3-(3-(4-isopropylpyridin-3-yl)azetidine-1-carbonyl)-5-oxooctahydro-1H-pyrrolo[1,2-a]azepin-6-yl)carbamoyl)benzo [b]thiophen-5-yl)methyl) phosphonic acid] |
| 0.3 to 3 | 1000 to 10000 | – | – | N#C[C@@H]1[C@@H](c2cncc(Cl)c2)CN(C(=O)[C@@H]2CC[C@@H]3CCC[C@H](NC(=O)c4cc5cc([C@H](F)P(=O)(O)O)ccc5s4)C(=O)N32)C12CC2 (single isomer, unassigned) [Compound 841] |
| ≤ 0.3 | 1000 to 10000 | – | – | O=C(N[C@H]1CCCC[C@H]2CC[C@@H](C(=O)N3C[C@@H](c4ccccc4)CC34CC4)N2C1=O)c1cc2cc(C(F)(F)P(=O)(O)O)ccc2s1 (single isomer, unassigned) [Compound 889] |
| 0.3 to 3 | 1000 to 10000 | – | – | N#C[C@H]1CN(C(=O)[C@@H]2CC[C@@H]3CCCC[C@H](NC(=O)c4cc5cc(CP(=O)(O)O)ccc5s4)C(=O)N32)C[C@@H]1c1cc[nH]c(=O)c1 (single isomer, unassigned) [Compound 878] |
| 3 to 30 | 1000 to 10000 | – | – | O=C(N[C@H]1CCCC[C@H]2CC[C@@H](C(=O)N[C@H]3COC[C@H]3F)N2C1=O)c1cc2cc(C(F)(F)P(=O)(O)O)ccc2s1 (relative stereo) [Compound 1111, (difluoro(2-(((3S,6S,10aS)-3-(((rel-trans)-4-fluorotetrahydrofuran-3-yl)carbamoyl)-5-oxodecahydropyrrolo[1,2-a]azocin-6-yl)carbamoyl)benzo[b]thiophen-5-yl)methyl)phosphonic acid] |
